Values quoted from earlier work in US11612656B2, “Use of small molecule based on indotricarbocyanine structure in preparation of medicines for tumor photothermal therapy” (Nanjing Nuoyuan Medical Devices Co., LTD., priority 2021, dated 2023).

Conditions: free ICG 20 μg/ml, light irradiation at power density 1 W/cm^2

Compound: CC1(C)C(/C=C/C=C/C=C/C=C2/N(CCCCS(=O)(=O)O)c3ccc4ccccc4c3C2(C)C)=[N+](CCCCS(=O)(=O)O)c2ccc3ccccc3c21.[Na+] [ICG, Indocyanine green]
- photothermal conversion efficiency (PTCE): 15.1%
